Patent publication US20220213074A1, “ABHD12 INHIBITORS AND METHODS OF MAKING AND USING SAME” (H. Lundbeck A/S, priority 2019, published 2022)

Biological target: T1, ABHD12 (Mus musculus, UniProt Q99LR1)
T1 construct: from tissue; host or cells: mouse brain (membrane fraction)
T1 sequence (Q99LR1 1-398): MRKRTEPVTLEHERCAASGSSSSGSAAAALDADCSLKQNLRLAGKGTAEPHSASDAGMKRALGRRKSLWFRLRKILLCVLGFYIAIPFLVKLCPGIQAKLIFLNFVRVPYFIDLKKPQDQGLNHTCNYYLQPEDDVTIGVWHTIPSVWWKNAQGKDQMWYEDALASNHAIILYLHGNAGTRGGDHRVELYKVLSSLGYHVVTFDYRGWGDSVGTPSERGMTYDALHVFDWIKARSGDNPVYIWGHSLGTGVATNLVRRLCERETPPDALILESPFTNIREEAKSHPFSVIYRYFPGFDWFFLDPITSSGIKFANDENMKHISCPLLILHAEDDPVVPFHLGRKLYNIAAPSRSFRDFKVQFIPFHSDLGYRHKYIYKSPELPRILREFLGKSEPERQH
Experiment: In vitro competitive activity-based protein profiling (FP-Rhodamine probe, gel-based) in mouse brain membrane proteomes
Type: biochemical
Conditions: mouse brain membrane proteome, 30 min preincubation at 37° C.; for inhibition at 1 µM: 1 μM inhibitor; for inhibition at 50 µM: 50 μM inhibitor (stated in cell); for inhibition at 10 µM: 10 μM inhibitor (stated in cell)
Method: Compounds were tested to assess their ABHD12 activity using the following assay.
Mouse brain membrane proteomes (50 μL, 1.0 mg/mL total protein concentration) were preincubated with varying concentrations of inhibitors at 37° C. After 30 min, FP-Rhodamine probe (1.0 μL, 50 μM in DMSO) was added and the mixture was incubated for 30 min at room temperature. Reactions were quenched with SDS loading buffer (15 μL-4×) and proteins were resolved by SDS-PAGE gel (10% acrylamide). Following in-gel fluorescence imaging, enzyme activity was determined by measuring intensity of gel bands corresponding to ABHD12 using ImageJ software.

SMILES	inhibition at 1 µM [%]	IC50 [nM]	other results
O=C(Nc1cccnc1)NC1CCN(c2nccc(Oc3ccc(OC(F)(F)F)c(F)c3)c2Cl)CC1 [Example 14, 1-(1-(3-Chloro-4-(3-fluoro-4-(trifluoro-methoxy)phenoxy)pyridin-2-yl)piperidin-4-yl)-3-(pyridin-3-yl)urea]	≥ 75	100 to 1000	–
O=C(Nc1cccnc1)NC1CCN(c2nccc(Oc3ccc(F)c(OC(F)(F)F)c3)c2Cl)CC1 [Example 5, 1-(1-(3-Chloro-4-(4-fluoro-3-(trifluoromethoxy)phenoxy)pyridin-2-yl)piperidin-4-yl)-3-(pyridin-3-yl)urea]	25 to 50	–	–
O=C(Nc1cccnc1)NC1CCN(c2nccc(-c3ccc(OC(F)(F)F)cc3)c2Cl)CC1 [Example 27, 1-(1-(3-Chloro-4-(4-(trifluoro-methoxy)phenyl)pyridin-2-yl)piperidin-4-yl)-3-(pyridin-3-yl)urea]	≥ 75	100 to 1000	–
O=C(Nc1cccnc1)NC1CCN(c2ncccc2Oc2ccc(OC(F)(F)F)cc2Cl)CC1 [Example 23, 1-(1-(3-(2-Chloro-4-(trifluoro-methoxy)phenoxy)pyridin-2-yl)piperidin-4-yl)-3-(pyridin-3-yl) urea]	≥ 75	100 to 1000	–
Cc1cc(OC(F)(F)F)ccc1Oc1ccnc(N2CCC(NC(=O)Nc3cccnc3)CC2)c1Cl [Example 16, 1-(1-(3-Chloro-4-(2-methyl-4-(trifluoro-methoxy)phenoxy)pyridin-2-yl)piperidin-4-yl)-3-(pyridin-3-yl)urea]	≥ 75	100 to 1000	–
O=C(Nc1cccnc1)NC1CCN(c2nccc(Oc3ccc(Cl)c(OC(F)(F)F)c3)c2Cl)CC1 [Example 2, 1-(1-(3-Chloro-4-(4-chloro-3-(trifluoromethoxy)phenoxy)pyridin-2-yl)piperidin-4-yl)-3-(pyridin-3-yl)urea]	≥ 75	100 to 1000	–
Cc1c(Oc2ccc(OC(F)(F)F)cc2)ccnc1N1CCC(NC(=O)Nc2cccnc2)CC1 [Example 9, 1-(1-(3-Methyl-4-(4-(trifluoro-methoxy)phenoxy)pyridin-2-yl)piperidin-4-yl)-3-(pyridin-3-yl) urea]	≥ 75	100 to 1000	–
O=C(Nc1cccnc1)NC1CCN(c2nccc(Oc3ccc(OC(F)(F)F)cc3)c2Cl)CC1 [Example 10, 1-(1-(3-Chloro-4-(4-(trifluoro-methoxy)phenoxy)pyridin-2-yl)pipcridin-4-yl)-3-(pyridin-3-yl) urea]	≥ 75	≤ 100	–
O=C(Nc1cccnc1)NC1CCN(c2nccc(OCc3cccc(OC(F)(F)F)c3)c2Cl)CC1 [Example 29, 1-(1-(3-Chloro-4-((3-(trifluoro-methoxy)benzyl)oxy)pyridin-2-yl)piperidin-4-yl)-3-(pyridin-3-yl)urea]	25 to 50	–	–
N#Cc1ccnc(N2CCC(NC(=O)Nc3cccnc3)CC2)c1 [Example 12, 1-(1-(4-Cyanopyridin-2-yl)piperidin-4-yl)-3-(pyridin-3-yl) urea]	–	–	inhibition at 50 µM: 25 to 50%
O=C(Nc1cccnc1)NC1CCN(c2nccc(Oc3ccc(OC(F)(F)F)c(Cl)c3)c2Cl)CC1 [Example 15, 1-(1-(3-Chloro-4-(3-chloro-4-(trifluoro-methoxy)phenoxy)pyridin-2-yl)piperidin-4-yl)-3-(pyridin-3-yl)urea]	≥ 75	100 to 1000	–
O=C(Nc1cccnc1)NC1CCN(c2cc(OCC3CC3)ccn2)CC1 [Example 19]	–	–	inhibition at 50 µM: 50 to 75%
C#Cc1ccc(N2CCC(NC(=O)Nc3cccnc3)CC2)nc1 [Example 25, 1-(1-(5-Ethynyl-pyridin-2-yl)piperidin-4-yl)-3-(pyridin-3-yl)urea]	0 to 25	–	–
COc1ccnc(N2CCC(NC(=O)Nc3cccnc3)CC2)c1 [Example 18]	0 to 25	–	–
O=C(Nc1cccnc1)NC1CCN(c2cc(Oc3ccc(C(F)(F)F)cc3)ccn2)CC1 [Example 7, 1-(Pyridin-3-yl)-3-(1-(4-(4-(trifluoromethyl)phenoxy)pyridin-2-yl)piperidin-4-yl)urea]	25 to 50	–	–
CC(C)OC(=O)N1CCC(Oc2ccnc(N3CCC(NC(=O)Nc4cccnc4)CC3)c2)CC1 [Example 22, Isopropyl 4-((2-(4-(3-(pyridin-3-yl)ureido)piperidin-1-yl)pyridin-4-yl)oxy) piperidine-1-carboxylate]	–	–	inhibition at 50 µM: 25 to 50%
O=C(Nc1cccnc1)NC1CCN(c2nccc(OC3CCOCC3)c2Cl)CC1 [Example 21, 1-(1-(3-Chloro-4-((tetrahydro-2H-pyran-4-yl)oxy)pyridin-2-yl)piperidin-4-yl)-3-(pyridin-3-yl)urea]	0 to 25	–	–
O=C(Nc1cccnc1)NC1CCN(c2nccc(C(F)(F)F)c2Cl)CC1 [Example 8, 1-(1-(3-Chloro-4-(trifluoro-methyl)pyridin-2-yl)piperidin-4-yl)-3-(pyridin-3-yl)urea]	–	–	inhibition at 10 µM: 50 to 75%
O=C(Nc1cccnc1)NC1CCN(c2cc(-c3ccc(OC(F)(F)F)cc3)ccn2)CC1 [Example 4, 1-(Pyridin-3-yl)-3-(1-(4-(4-(trifluoromethoxy)phenyl)pyridin-2-yl)piperidin-4-yl)urea]	25 to 50	–	–
O=C(Nc1cccnc1)NC1CCN(c2nccc(OCc3ccc(OC(F)(F)F)cc3)c2Cl)CC1 [Example 28, 1-(1-(3-Chloro-4-((4-(trifluoro-methoxy)benzyl)oxy)pyridin-2-yl)piperidin-4-yl)-3-(pyridin-3-yl)urea]	25 to 50	–	–
CC(=O)c1ccc(N2CCC(NC(=O)Nc3cccnc3)CC2)nc1 [Example 3, 1-(1-(5-Acetylpyridin-2-yl)piperidin-4-yl)-3-(pyridin-3-yl)urea]	0 to 25	–	–
O=C(Nc1cccnc1)NC1CCN(c2nc(Oc3ccc(OC(F)(F)F)cc3Cl)ccc2Cl)CC1 [Example 24, 1-(1-(3-Chloro-6-(2-chloro-4-(trifluoro-methoxy)phenoxy)pyridin-2-yl)piperidin-4-yl)-3-(pyridin-3-yl)urea]	25 to 50	–	–
N#Cc1c(Oc2ccc(C(F)(F)F)cc2)ccnc1N1CCC(NC(=O)Nc2cccnc2)CC1 [Example 20, 1-(1-(3-Cyano-4-(4-(trifluoro-methyl)phenoxy)pyridin-2-yl)piperidin-4-yl)-3-(pyridin-3-yl) urea]	50 to 75	–	–
C#Cc1ccc(Oc2ccnc(N3CCC(NC(=O)Nc4cccnc4)CC3)c2Cl)c(Cl)c1 [Example 6, 1-(1-(3-Chloro-4-(2-chloro-4-ethynylphenoxy)pyridin-2-yl)piperidin-4-yl)-3-(pyridin-3-yl)urea]	≥ 75	100 to 1000	–
O=C(Nc1cccnc1)NC1CCN(c2nccc(Oc3ccccc3OC(F)(F)F)c2Cl)CC1 [Example 13, 1-(1-(3-Chloro-4-(2-(trifluoro-methoxy)phenoxy)pyridin-2-yl)piperidin-4-yl)-3-(pyridin-3-yl)urea]	25 to 50	–	–
O=C(Nc1cccnc1)NC1CCN(c2nccc(Oc3cccc(OC(F)(F)F)c3)c2Cl)CC1 [Example 17, 1-(1-(3-Chloro-4-(3-(trifluoro-methoxy)phenoxy)pyridin-2-yl)piperidin-4-yl)-3-(pyridin-3-yl)urea]	50 to 75	–	–
O=C(Nc1cccnc1)NC1CCN(c2nccc(-c3cccc(OC(F)(F)F)c3)c2Cl)CC1 [Example 26, 1-(1-(3-Chloro-4-(3-(trifluoro-methoxy)phenyl)pyridin-2-yl)piperidin-4-yl)-3-(pyridin-3-yl)urea]	≥ 75	100 to 1000	–
O=C(Nc1cccnc1)NC1CCN(c2ccc(Cl)cn2)CC1 [Example 11, 1-(1-(5-Chloropyridin-2-yl)piperidin-4-yl)-3-(pyridin-3-yl) urea]	–	–	inhibition at 50 µM: ≥ 75%
O=C(Nc1cccnc1)NC1CCN(c2cccc(C(F)(F)F)n2)CC1 [Example 1, 1-(Pyridin-3-yl)-3-(1-(6-(trifluoromethyl)pyridin-2-yl)piperidin-4-yl)urea]	–	–	inhibition at 10 µM: 50 to 75%
